In the assay the target is T1, human GPR68 (Homo sapiens, UniProt Q15743).
T1 construct: encoding full-length human GPR68 (uniprot ID: Q15743); expressed in transfected cells; host or cells: HEK293T
Put plainly: GPR68 Biochemical Assay (Promega GloSensor cAMP assay, GPR68 antagonism). It is filed as cell-based. The settings on record: 15 min. Summed up: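 HEK293T cells transiently co-transfected with full-length human GPR68 and GloSensor plasmids, preloaded 60 min with GloSensor substrate in pH 8.0 buffer. Compounds (9-point half-log series, top 50 μM final, 0.5% DMSO) added with pH 5.5 buffer (~EC80-90 stimulation); luminescence read after 15 min at room temperature. IC50 from sigmoidal fit of % inhibition.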
Background: Cyclic AMP is a second messenger, typically raised through Gs and lowered through Gi signalling.

Setting [1] is: HEK293T cells transiently expressing hGPR68, antagonism of pH 5.5 stimulated cAMP, read-out: hGPR68 IC50.
[2] abbreviates: hGPR68 IC50, HEK293T cells transiently expressing hGPR68, antagonism of pH 5.5 stimulated cAMP.

Where two headings read alike, the source gives them in different places.

A word on the IC50: it is the point on the concentration scale where inhibition reaches its midpoint.

T1 sequence (Q15743 whole entry): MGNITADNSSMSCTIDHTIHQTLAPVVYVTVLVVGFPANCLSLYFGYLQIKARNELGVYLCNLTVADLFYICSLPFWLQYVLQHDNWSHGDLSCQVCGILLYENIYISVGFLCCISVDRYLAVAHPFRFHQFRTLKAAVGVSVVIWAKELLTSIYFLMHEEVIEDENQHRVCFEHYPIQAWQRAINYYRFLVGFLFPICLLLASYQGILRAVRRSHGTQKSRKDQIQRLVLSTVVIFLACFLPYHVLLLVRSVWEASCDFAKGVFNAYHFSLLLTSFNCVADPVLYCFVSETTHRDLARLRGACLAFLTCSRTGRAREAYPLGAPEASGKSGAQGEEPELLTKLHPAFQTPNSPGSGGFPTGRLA

In the case of `NC(=O)c1c(C2CC2)nn2c(C(=O)NCc3ccc(F)cc3)ccnc12` [Compound 140, 2-cyclopropyl-N7-[(4-fluorophenyl)methyl]pyrazolo[1,5-a]pyrimidine-3,7-dicarboxamide], the IC50 under setting [1] was < 50 nM.
For `NC(=O)c1c(CO)nn2c(C(=O)N[C@H]3C[C@@H](OC(F)(F)F)C3)ccnc12` [Compound 141, 2-(hydroxymethyl)-N7-[cis-3-(trifluoromethoxy)cyclobutyl]pyrazolo[1,5-a]pyrimidine-3,7-dicarboxamide], under setting [2], the IC50 is < 50 nM.
Consider `NC(=O)c1c(OCC2CC2)nn2c(C(=O)NC3Cc4ccccc4C3)ccnc12` [Compound 142, 2-(cyclopropylmethoxy)-N7-indan-2-yl-pyrazolo[1,5-a]pyrimidine-3,7-dicarboxamide], for which the IC50 under setting [1] is < 50 nM.
For `COCc1nn2c(C(=O)NC3Cc4ccccc4C3)ccnc2c1C(=O)O` [Compound 143, 7-(indan-2-ylcarbamoyl)-2-(methoxymethyl)pyrazolo[1,5-a]pyrimidine-3-carboxylic Acid], under setting [1], the IC50 fell in the range of 50 to 500 nM.
Regarding `COCc1nn2c(C(=O)NC3COc4ccc(Br)cc4C3)ccnc2c1C(N)=O` (stereo not shown) [Compound 144, N7-(6-bromochroman-3-yl)-2-(methoxymethyl)pyrazolo[1,5-a]pyrimidine-3,7-dicarboxamide], under setting [1], the 50% inhibitory concentration (IC50) was < 50 nM.
The same measure, in the same setting: the figure for `CNc1nn2c(C(=O)N[C@H]3C[C@@H](OC(F)(F)F)C3)ccnc2c1C(N)=O` [Compound 145, 2-(methylamino)-N7-[cis-3-(trifluoromethoxy)cyclobutyl]pyrazolo[1,5-a]pyrimidine-3,7-dicarboxamide] is < 50 nM.
`COCc1nn2c(C(=S)NC3Cc4ccccc4C3)ccnc2c1C(N)=O` [Compound 148, 7-(indan-2-ylcarbamothioyl)-2-(methoxymethyl)pyrazolo[1,5-a]pyrimidine-3-carboxamide]: the IC50 under setting [1] was < 50 nM.
Same read-out and setting: the figure for `COCc1nn2c(C(=O)NC3Cc4ccccc4C3)ccnc2c1C(N)=S` [Compound 149, 3-carbamothioyl-N-indan-2-yl-2-(methoxymethyl)pyrazolo[1,5-a]pyrimidine-7-carboxamide] is 50 to 500 nM; for `NC(=O)c1c(C2CC2)nc2c(C(=O)NC3CCC(F)(F)CC3)ccnn12` [Compound 150, 2-cyclopropyl-N8-(4,4-difluorocyclohexyl)imidazo[1,2-b]pyridazine-3,8-dicarboxamide] it is < 50 nM.
As for `NC(=O)c1c(C2CC2)nc2c(C(=O)N[C@H]3C[C@@H](OC(F)(F)F)C3)ccnn12` [Compound 151, 2-cyclopropyl-N8-[cis-3-(trifluoromethoxy)cyclobutyl]imidazo[1,2-b]pyridazine-3,8-dicarboxamide], the IC50 under setting [1] is < 50 nM.
Same read-out and setting: the value for `COCc1nn2c(C(=O)NC3Cc4ccccc4C3(F)F)ccnc2c1C(N)=O` (stereo not shown) [Compound 152, N7-(1,1-difluoroindan-2-yl)-2-(methoxymethyl)pyrazolo[1,5-a]pyrimidine-3,7-dicarboxamide] was < 50 nM; that for `COCc1nn2c(C(=O)NC3COc4cc(F)cc(F)c43)ccnc2c1C(N)=O` (stereo not shown) [Compound 153, N7-(4,6-difluoro-2,3-dihydrobenzofuran-3-yl)-2-(methoxymethyl)pyrazolo[1,5-a]pyrimidine-3,7-dicarboxamide] was < 50 nM; that for `COCc1nn2c(C(=O)NC3(C)CCc4ccccc43)ccnc2c1C(N)=O` (stereo not shown) [Compound 155, 2-(methoxymethyl)-N7-(1-methylindan-1-yl)pyrazolo[1,5-a]pyrimidine-3,7-dicarboxamide] was 50 to 500 nM.
On to `NC(=O)c1c(C2CC2)nn2c(C(=O)NC3CCC(F)(F)CC3)cnnc12` [Compound 156, 7-cyclopropyl-N4-(4,4-difluorocyclohexyl)pyrazolo[5,1-c][1,2,4]triazine-4,8-dicarboxamide], for which the IC50 under setting [2] lay within 50 to 500 nM.
Consider `[2H]C([2H])([2H])OCc1nn2c(C(=O)N[C@H]3C[C@@H](OC(F)(F)F)C3)ccnc2c1C(N)=O` [Compound 157, 2-(trideuteriomethoxymethyl)-N7-[cis-3-(trifluoromethoxy)cyclobutyl]pyrazolo[1,5-a]pyrimidine-3,7-dicarboxamide], for which the IC50 under setting [1] was < 50 nM.
Same read-out and setting: the value for `NC(=O)c1c(COCF)nn2c(C(=O)N[C@H]3C[C@@H](OC(F)(F)F)C3)ccnc12` [Compound 158, 2-(fluoromethoxymethyl)-N7-[cis-3-(trifluoromethoxy)cyclobutyl]pyrazolo[1,5-a]pyrimidine-3,7-dicarboxamide] was < 50 nM.
Still for that read-out and setting: the figure for `CNc1nn2c(C(=O)NC3Cc4ccccc4C3)ccnc2c1C(N)=O` [Compound 159, N7-indan-2-yl-2-(methylamino)pyrazolo[1,5-a]pyrimidine-3,7-dicarboxamide] is < 50 nM; for `[2H]C([2H])([2H])OCc1nn2c(C(=O)NC3Cc4cccnc4C3)ccnc2c1C(N)=O` (stereo not shown) [Compound 160, N7-(6,7-dihydro-5H-cyclopenta[b]pyridin-6-yl)-2-(trideuteriomethoxymethyl)pyrazolo[1,5-a]pyrimidine-3,7-dicarboxamide] it is < 50 nM; for `CNC(=O)c1c(COC)nn2c(C(=O)N[C@H]3C[C@@H](OC(F)(F)F)C3)ccnc12` [Compound 161, 2-(methoxymethyl)-N3-methyl-N7-[cis-3-(trifluoromethoxy)cyclobutyl]pyrazolo[1,5-a]pyrimidine-3,7-dicarboxamide] it is 500 to 5000 nM.
Same read-out and setting: the figure for `NC(=O)c1c(OCC2CC2)nn2c(C(=O)N[C@H]3C[C@@H](OC(F)(F)F)C3)ccnc12` [Compound 162, 2-(cyclopropylmethoxy)-N7-[cis-3-(trifluoromethoxy)cyclobutyl]pyrazolo[1,5-a]pyrimidine-3,7-dicarboxamide] is 50 to 500 nM.
On to `NC(=O)c1c(C2CC2)nc2c(C(=O)NC3Cc4cccnc4C3)ccnn12` (stereo not shown) [Compound 163, 2-cyclopropyl-N8-(6,7-dihydro-5H-cyclopenta[b]pyridin-6-yl) imidazo[1,2-b]pyridazine-3,8-dicarboxamide], for which the half-inhibitory concentration (IC50) under setting [1] was < 50 nM.
Still for that read-out and setting: the figure for `COCc1nc2c(C(=O)NC3Cc4cc(F)cc(F)c4C3)ccnn2c1C(N)=O` (stereo not shown) [Compound 164, N8-(4,6-difluoroindan-2-yl)-2-(methoxymethyl)imidazo[1,2-b]pyridazine-3,8-dicarboxamide] is < 50 nM.
Take `COCc1nn2c(C(=O)NC3Cc4nccn4C3)ccnc2c1C(N)=O` (stereo not shown) [Compound 165, N7-(6,7-dihydro-5H-pyrrolo[1,2-a]imidazol-6-yl)-2-(methoxymethyl)pyrazolo[1,5-a]pyrimidine-3,7-dicarboxamide]: under setting [1], the IC50 is 50 to 500 nM.
Still for that read-out and setting: the figure for `COCc1nn2c(C(=O)N[C@@H]3CCOc4cc(F)ccc43)ccnc2c1C(N)=O` [Compound 166, N7-[(4R)-7-fluorochroman-4-yl]-2-(methoxymethyl)pyrazolo[1,5-a]pyrimidine-3,7-dicarboxamide] is < 50 nM.
Still for that read-out and setting: the value for `COCc1nn2c(C(=O)N[C@@H]3COc4cc(F)ccc43)ccnc2c1C(N)=O` [Compound 167, N7-[(3S)-6-fluoro-2,3-dihydrobenzofuran-3-yl]-2-(methoxymethyl)pyrazolo[1,5-a]pyrimidine-3,7-dicarboxamide] was < 50 nM; that for `COCc1nn2c(C(=O)NC3CS(=O)(=O)c4ccccc43)ccnc2c1C(N)=O` (stereo not shown) [Compound 168, N7-(1,1-dioxo-2,3-dihydrobenzothiophen-3-yl)-2-(methoxymethyl)pyrazolo[1,5-a]pyrimidine-3,7-dicarboxamide] was < 50 nM; that for `COCc1nn2c(C(=O)N[C@H]3COc4c(Cl)cccc43)ccnc2c1C(N)=O` [Compound 169, N7-[(3R)-7-chloro-2,3-dihydrobenzofuran-3-yl]-2-(methoxymethyl)pyrazolo[1,5-a]pyrimidine-3,7-dicarboxamide] was < 50 nM.
In the case of `COCc1nn2c(C(=O)NC3Cc4ccncc4C3)ccnc2c1C(N)=O` (stereo not shown) [Compound 170, N7-(6,7-dihydro-5H-cyclopenta[c]pyridin-6-yl)-2-(methoxymethyl)pyrazolo[1,5-a]pyrimidine-3,7-dicarboxamide], the IC50 under setting [1] is < 50 nM.
Still for that read-out and setting: the value for `COCc1nn2c(C(=O)NC3CCOc4ncccc43)ccnc2c1C(N)=O` (stereo not shown) [Compound 171, N7-(3,4-dihydro-2H-pyrano[2,3-b]pyridin-4-yl)-2-(methoxymethyl)pyrazolo[1,5-a]pyrimidine-3,7-dicarboxamide] was 50 to 500 nM; that for `COCc1nn2c(C(=O)N[C@H]3CCOc4ccccc43)ccnc2c1C(N)=O` [Compound 172, N7-[(4S)-chroman-4-yl]-2-(methoxymethyl)pyrazolo[1,5-a]pyrimidine-3,7-dicarboxamide] was 50 to 500 nM.
Take `COCc1nn2c(C(=O)NC3CCOc4cc(F)c(F)cc43)ccnc2c1C(N)=O` (stereo not shown) [Compound 182, N7-(6,7-difluorochroman-4-yl)-2-(methoxymethyl)pyrazolo[1,5-a]pyrimidine-3,7-dicarboxamide]: the 50% inhibitory concentration (IC50) under setting [1] is < 50 nM.
In the case of `COCc1nn2c(C(=O)N[C@H]3CCc4ccccc43)ccnc2c1C(N)=O` [Compound 183, 2-(methoxymethyl)-N7-[(1S)-indan-1-yl]pyrazolo[1,5-a]pyrimidine-3,7-dicarboxamide], the half-inhibitory concentration (IC50) under setting [1] was < 50 nM.
Same read-out and setting: the value for `COCc1nn2c(C(=O)NC3COc4ncccc43)ccnc2c1C(N)=O` (stereo not shown) [Compound 184, N7-(2,3-dihydrofuro[2,3-b]pyridin-3-yl)-2-(methoxymethyl)pyrazolo[1,5-a]pyrimidine-3,7-dicarboxamide] was < 50 nM; that for `COCc1nn2c(C(=O)NC3COc4cc(F)cc(F)c4C3)ccnc2c1C(N)=O` (stereo not shown) [Compound 185, N7-(5,7-difluorochroman-3-yl)-2-(methoxymethyl)pyrazolo[1,5-a]pyrimidine-3,7-dicarboxamide] was 50 to 500 nM.
